According to patent publication US20090258030A1, “Materials and Methods for Improving Livestock Productivity” (priority 2006, published 2009):
Counter-ions that a name gives are not always drawn. Marks after values point to notes of the source that are not given here.

Key:
[1] = Effect of cysteamine hydrochloride on productivity of pregnant pig sows (Example 1); type: in vivo, swine (D×L×M hybrid swine)
Source text: A total of 14 heads of pregnant pig sow (which were the offspring of Duroc×Landrace×Meishan swine, also referred to herein as D×L×M hybrid swine) (84 days of pregnant) were divided into 2 groups: Control group (6) and Cysteamine group (8). The Control group was fed with basal diet. […]

[2] = Effect of cysteamine compound on small-fat-tail sheep (Example 6); type: in vivo
Source text: In the following example, the test animals were sheep (small-fat-tail sheep). In total, 40 heads of small-fat-tail sheep with the average weight of 26.5 kg were randomly divided into Control group (20) and Cysteamine group (20). The control group was fed with basal diet only, while the Cysteamine group was fed a diet that included 900 g cysteamine HCl per tonnage of diet. The standard basal diet of the farm was employed for this trial.

[3] = Intestine villi length and histology in pigs (Example 4); type: in vivo, swine; conditions: 150 g of cysteamine hydrochloride per ton of feed; 30 days
Experimental: 72 piglets were evenly divided into control group and Cysteamine group. The control group was treated with basal diet only, while the Cysteamine group was added with 150 g of cysteamine hydrochloride per ton of feed. The trial was lasted for 30 days.
Immediately after evisceration, tissue samples from the small intestine, large intestine, liver, and pancreas of pigs from each treatment group were collected. The collected samples were placed in properly labeled containers containing 10% buffered neutral formalin solution. The tissue samples were fixed for 78 hours before they were processed for routine histological examination using the paraffin embedding technique (well-known to the skilled artisan).
Sections approximately 5 to 6μ thick were cut from paraffin blocked tissues using Optical 820 Rotary Microtome (Scientific Instruments Division, Buffalo, N.Y.). Some sections were stained with hematoxylin and eosin (H & E), others with Alcian blue. H & E stained sections were used for the examination of the general histology of the intestinal tract while the Alcian blue stained sections were used for goblet cells identification. The stained sections were examined under various magnifications using a light microscope.
The number and length (μm) of villi in the small intestine were counted per microscopic field; the thickness of the tunica muscularis in the small and large intestine were measured using American Optical Micrometer (American Optical Company, Buffalo, N.Y.) calibrated in millimeters. The mucosal folds in the large intestine, the density of intestinal glands (crypts), the appearance of the surface epithelium were all observed. The general histology of the liver and pancreas were examined and compared between Cysteamine treated and non-Cysteamine treated groups. Goblet cell density in the Cysteamine treated and non-Cysteamine treated pigs was compared through visual examination using light microscope.

[4] = Efficacy of cysteamine hydrochloride on sow and their weaning piglets performance (Example 9); type: in vivo, swine (crossbred Yolkshire and Lanrace sows); conditions: for Total of pigs born: 10 sows from 84 days gestation; for Av. of milk yield, L/d: calculated from average daily gain of piglets × 4 × no of piglets in each litter; for Total number of piglets at weaning: weaned at 21 days
Source text: All sows used in the experiment were crossbred (Yolkshire and Lanrace) selected from the 3rd and the 4^Th (ratio 4:6) pregnancy. Thirty sows (84 days gestation) were equally allocated into three treatments and each treatment of sows were divided into 10 replications with each sow per replication.
Cysteamine Hydrochloride was included to sow feeds at 135 ppm or 190 ppm. The diets were fed in mash form, water was allowed ad libitum. Litter size, litter weights, number of piglets born alive and weaned were recorded. Morbidity, incidence of diarrhea and mortality rates were recorded. Piglet's uniformity was accounted as percentage units that fell into two times of standard deviation based on average weaning live weight. The piglets from each sow were weaned at 21 days of age. On day 109 of gestation, sows were moved to farrowing units and were weight after farrowing and also weighed again after lactation. Back fat losses were measured every weeks during lactation period by using Renco Lean-Meter (Ultrasound for Ultra-profits, Renco Corporation, Minnesota, 55401, USA). Sows were fed about 2 kg/day during 16-84 days, 3 kg/day until farrowing and fed ad libitum during lactation period.
All sows were housed in cages adjacent to the boar's area and serviced by artificial insemination twice at 18 hours interval with the checked quality semen of the same boar. After 1 week service, they were weighed and moved to individual gestation cages. Five days prior to the date of parturition, they were moved to the farrowing units for setting in and staying till piglets weaning. After piglets weaning each sow was moved again to the service area.
All sows and piglets were subject to the usual vaccination program, antiparasitic treatment, iron injection and tail docking for piglets. An individual treatment was done if a disease or injury was developed during the trial, under the authority of the veterinary in charge of the farm animal health.

[5] = 150 g cysteamine hydrochloride per ton feed, after 49 days, vs control
[6] = late phase pregnant sow, dosage 500 g/T, from 84 days of pregnant to weaning
[7] = 900 g cysteamine HCl per tonnage of diet, after 35 days
[8] = 900 g/tonnage, 35 days, vs control
[9] = feed consumed, 900 g/tonnage, 35 days, 20 head
[10] = T2: 0.0135 (135 ppm in sow feed)
[11] = T3: 0.019 (190 ppm in sow feed)

SMILES: NCCS [Cysteamine Hydrochloride, cysteamine hydrochloride]
- increase in litter weight [1, 5]: 13.28%
- increase in piglet born weight [1, 5]: 12.43%
- increase in weaning weight [1, 5]: 8.00%
- Body weight of weaned piglet (kg/head) ([1]; dosage 500 g/T, piglets weaning age 19 days): 6.21 kg/head
- Birth weight per litter: Improvement ([1]; dosage 500 g/T, vs control): 2.50 kg
- Birth weight per litter: Improvement (%) ([1]; dosage 500 g/T, vs control): 13.28%
- Birth weight per piglet: Improvement ([1]; dosage 500 g/T, vs control): 0.23 kg/head
- Birth weight per piglet: Improvement (%) ([1]; dosage 500 g/T, vs control): 12.43%
- Body weight of weaned piglet: Improvement ([1]; dosage 500 g/T, vs control): 0.46 kg/head
- Body weight of weaned piglet: Improvement (%) ([1]; dosage 500 g/T, vs control): 8.00%
- Live piglet born rate: Improvement ([1]; dosage 500 g/T, vs control): 0.00%
- Live piglet born rate: Improvement (%) ([1]; dosage 500 g/T, vs control): 0.00%
- Birth weight per litter [1, 6]: 21.32 kg
- Birth weight per piglet (kg/head) [1, 6]: 2.08 kg/head
- Live piglet born per litter (head) [1, 6]: 10.29 head
- Live piglet born rate (%) [1, 6]: 100.00%
- Piglet born per litter (head) [1, 6]: 10.29 head
- Total live piglet born (head) [1, 6]: 82 head
- Total piglet born (head) [1, 6]: 82 head
- amount of silage necessary in raising the sheep [2, 7]: reduction
- weight (ADG) vs control [2, 7]: statistically significant increase
- Daily weight gain (g/head/day) ([2]; 900 g/tonnage, 35 days): 95.71 g/head/day
- Final weight (kg/head) ([2]; 900 g/tonnage, 35 days): 28.92 kg/head
- Weight gain (kg/head) ([2]; 900 g/tonnage, 35 days): 3.350 kg/head
- Total feed consumption ([2]; 900 g/tonnage, 35 days, 20 head): 1019.38 kg
- Daily weight gain: Improvement (%) [2, 8]: 30.9%
- Silage: Improvement (%) [2, 8]: −16.22%
- Weight gain: Improvement (%) [2, 8]: 30.9%
- Concentrate [2, 9]: 245 kg
- Hay [2, 9]: 350.00 kg
- Silage [2, 9]: 424.38 kg
- Villi Length, Small Intestines [3]: 2.15 ± 0.09^A
- goblet cells in the small and large intestine vs non-Cysteamine-treated [3]: noticeably larger and highly distended
- number and length of small intestinal villi vs non-Cysteamine treated [3]: more numerous and longer
- Av. birth weight of piglets, kg [4, 10]: 1.737^a kg
- Av. daily feed intake of sow during lactation, kg [4, 10]: 5.88^a kg
- Av. daily gain of piglets [4, 10]: 355 g
- Av. feed intake per piglets [4, 10]: 179 g
- Av. live weight of piglets at weaning [4, 10]: 7.45 kg
- Av. number of piglets born alive per litter [4, 10]: 11.10
- Av. of piglet born per litter [4, 10]: 11.60
- Av. overall weight loss of sow during lactation, kg [4, 10]: 14.25^b kg
- Av. total birth weight of piglet per litter, kg [4, 10]: 19.10^a kg
- Back fat loss of sow during lactation, mm: Overall [4, 10]: 0.867^b mm
- Back fat loss of sow during lactation, mm: Week 1 [4, 10]: 0.165^b mm
- Back fat loss of sow during lactation, mm: Week 2 [4, 10]: 0.588^b mm
- Back fat loss of sow during lactation, mm: Week 3 [4, 10]: 0.114^b mm
- Number of piglet weaning per litter [4, 10]: 10.20
- Survival rate of piglets at weaning, % [4, 10]: 91.90%
- Total number of piglet born alive per litter [4, 10]: 111
- Total weight of piglets at weaning per litter, kg [4, 10]: 76.02^ab kg
- Uniformity of live weight at weaning, % [4, 10]: 86.68^a %
- Total of pigs born [4, 10]: 116
- Av. of milk yield, L/d [4, 10]: 14.48^ab L/d
- Total number of piglets at weaning [4, 10]: 102
- Av. birth weight of piglets, kg [4, 11]: 1.782^a kg
- Av. daily feed intake of sow during lactation, kg [4, 11]: 6.07^a kg
- Av. daily gain of piglets [4, 11]: 366 g
- Av. feed intake per piglets [4, 11]: 183 g
- Av. live weight of piglets at weaning [4, 11]: 7.68 kg
- Av. number of piglets born alive per litter [4, 11]: 10.70
- Av. of piglet born per litter [4, 11]: 11.50
- Av. overall weight loss of sow during lactation, kg [4, 11]: 13.58^b kg
- Av. total birth weight of piglet per litter, kg [4, 11]: 18.88^a kg
- Back fat loss of sow during lactation, mm: Overall [4, 11]: 0.829^b mm
- Back fat loss of sow during lactation, mm: Week 1 [4, 11]: 0.171^b mm
- Back fat loss of sow during lactation, mm: Week 2 [4, 11]: 0.548^b mm
- Back fat loss of sow during lactation, mm: Week 3 [4, 11]: 0.110^b mm
- Number of piglet weaning per litter [4, 11]: 10.40
- Survival rate of piglets at weaning, % [4, 11]: 97.20%
- Total number of piglet born alive per litter [4, 11]: 107
- Total weight of piglets at weaning per litter, kg [4, 11]: 79.42^a kg
- Uniformity of live weight at weaning, % [4, 11]: 86.95^a %
- Total of pigs born [4, 11]: 115
- Av. of milk yield, L/d [4, 11]: 15.13^a L/d
- Total number of piglets at weaning [4, 11]: 104
